Reference: patent US6376510B1, “Neuromuscular relaxants” (Newlaxant LLC, priority 1997, dated 2002)
Read-outs that look alike come from different tables or passages of the source.

How the values were obtained:
[1] = system: anesthetized rats (evoked responses of anterior tibial muscle); assay: In vivo neuromuscular block and cardiovascular side effects, anesthetized rat (Example 8, Table 3); conditions: for RI (recovery index): spontaneous recovery, 25-75% neuromuscular response; for Onset: time to 80-85% neuromuscular block
From the text: The neuromuscular blocking activity and other effects (e.g. cardiovascular side effects) of selected agents were investigated on several different experimental animals. Justification for this approach lies in the commonly known fact that the pharmacodynamic and pharmacokinetic properties of these agents are markedly variable from species to species. Therefore, the most important aspects of the projected therapeutic utility of these agents, e.g., neuromuscular blocking potency, onset and duration of action, and side effects cannot be ascertained in “in vitro” preparations or by using only one species of animals.
a) Adult, male albino rats were anesthetized with pentobarbital injected intraperitoneally. The trachea was cannulated for artificial respiration via a small animal respirator. The carotid artery was cannulated for recording blood pressure via a transducer and heart rate by a cardiotachograph on a polygraph. One external jugular vein was cannulated for i.v. drug administration. Neuromuscular function was monitored by electromyography, recording evoked responses from the anterior tibial muscle as a result of supramaximal nerve stimuli consisting of single or “train-of-four” rectangular pulses of 0.1-0.2 msec duration every 10-12 seconds, delivered to the sciatic or common peroneal nerve by a laboratory nerve stimulator. Another mode of stimulation included repeated single stimuli delivered at 0.1 Hz or 1 Hz. […] The agents were dissolved in physiologic saline and injected intravenously at appropriate time intervals. The intensity, onset, and duration of neuromuscular block and its type were determined with each agent. Through administering several doses, the doses corresponding to 50%, 80% and 90% neuromuscular block were determined. All agents were compared with selected standard neuromuscular blocking compounds, e.g. succinylcholine, pancuronium, mivacurium, or rocuronium.
Onset=time in minutes to 80-85% neuromuscular block.
RI=recovery index, minutes, spontaneous recovery, 25-75% neuromuscular response.
VB=vagal block, %, at 80-85% neuromuscular blocking dose.
ΔHR=change in heart rate, %, at 80-85% neuromuscular blocking dose.
ΔBP=change in arterial blood pressure, %, at 80-85% neuromuscular blocking dose.

[2] = system: rabbits; assay: In vivo neuromuscular block and cardiovascular side effects, rabbit (Example 8, Table 7); conditions: for ED50: intravenous dose causing 50% neuromuscular block; for RI (recovery index): spontaneous recovery, 25-75% neuromuscular response; for Onset: time to 80-85% neuromuscular block
[3] = system: anesthetized juvenile pigs; assay: animal or person; assay type: in vivo; conditions: pig; for ED50: intravenous dose causing 50% neuromuscular block; for RI (recovery index): spontaneous recovery, 25-75% neuromuscular response; for Onset: time to 80-85% neuromuscular block
From the text: Both electromyographic and mechanomyographic responses can be quantified.
The techniques described under a) and b) were employed in other species as needed with the modification that juvenile pigs were initially anesthetized with inhalation of halothane (Table 5) and monkeys were initially sedated with intramuscular ketamine injections prior to inducing and maintaining general anesthesia using pentobarbital and propofol administered intravenously (Table 6).

[4] = rat, at 80-85% neuromuscular blocking dose
[5] = rat, intravenous dose causing 50% neuromuscular block
[6] = Oryctolagus cuniculus, read-out: ED50
[7] = at 80-85% neuromuscular blocking dose

| VB (vagal block) ([3]; in vivo) | SMILES | VB (vagal block) [1, 4] | ΔBP (change in arterial blood pressure) [1, 4] | ΔH (change in heart rate) [1, 4] | ED50 [1, 5] | RI (recovery index) ([1]; rat) | Onset ([1]; rat) | ΔBP (change in arterial blood pressure) ([2]; in vivo) | ΔH (change in heart rate) ([2]; in vivo) | ED50 [2] | RI (recovery index) [2] | Onset [2] | ΔBP (change in arterial blood pressure) ([3]; in vivo) | ΔH (change in heart rate) ([3]; in vivo) | ED50 [3] | RI (recovery index) [3] | Onset [3] | VB (vagal block) ([1]; rat, in vivo) | ΔBP (change in arterial blood pressure) ([1]; rat, in vivo) | ΔH (change in heart rate) ([1]; rat, in vivo) | also measured |
| --- | --- | --- | --- | --- | --- | --- | --- | --- | --- | --- | --- | --- | --- | --- | --- | --- | --- | --- | --- | --- | --- |
| 30% | CCC(=O)Oc1ccc(C[N+]2(C)C3CCCC2CC(OC(=O)CCCCCC(=O)OC2CC4CCCC(C2)[N+]4(C)Cc2ccc(OC(=O)CC)c(OC(=O)CC)c2)C3)cc1OC(=O)CC.[Br-].[Br-] (stereo not shown) [bis[N-(3,4-dipropionyloxybenzyl)granataninium-3-yl]pimelate dibromide] |  |  |  | 0.45 mg/kg | 0.35 min | 0.5 min | 0% | 0% | 0.5 mg/kg | 0.4 min | 0.45 min | 0% | 0% | 0.7 mg/kg | 0.5 min | 0.5 min | 2% | −6% | −3% |  |
| 43% | CCC(=O)Oc1ccc(C[N+]2(C)C3CCCC2CC(OC(=O)CCCCC(=O)OC2CC4CCCC(C2)[N+]4(C)Cc2ccc(OC(=O)CC)c(OC(=O)CC)c2)C3)cc1OC(=O)CC.[Br-].[Br-] (stereo not shown) [bis[N-(3,4-dipropionyloxybenzyl)granataninium-3-yl]adipate dibromide] |  |  |  | 0.32 mg/kg | 0.35 min | 0.4 min | 0% | 0% | 0.16 mg/kg | 0.5 min | 0.5 min | 0% | 0% | 0.275 mg/kg | 0.4 min | 0.45 min | 0% | −4% | 0% |  |
|  | CCC(=O)Oc1ccc(C[N+]2(C)[C@@H]3CC[C@H]2C[C@@H](OC(=O)CCCC(=O)O[C@H]2C[C@H]4CC[C@@H](C2)[N+]4(C)Cc2ccc(OC(=O)CC)c(OC(=O)CC)c2)C3)cc1OC(=O)CC.[Br-].[Br-] (stereo partly drawn) [bis[N-(3,4-dipropionyloxybenzyl)tropanium-3α-yl]glutarate dibromide] | 0% | 0% | 0% |  | 0.5 min | 0.7 min |  |  |  | 0.8 min | 1 min |  |  |  | 0.6 min | 1.1 min |  |  |  | ED50 ([1]; Rattus norvegicus, iv): 0.3 mg/kg; ED50 [2, 6]: 0.065 mg/kg; ΔBP (change in arterial blood pressure) [2, 7]: 0%; ΔH (change in heart rate) [2, 7]: 0%; ED50 ([3]; Sus scrofa, read-out: ED50): 0.45 mg/kg; VB (vagal block) [3, 7]: 70%; ΔBP (change in arterial blood pressure) [3, 7]: 0%; ΔH (change in heart rate) [3, 7]: 0% |
|  | CCC(=O)Oc1ccc(C[N+]2(C)[C@@H]3CC[C@H]2C[C@@H](OC(=O)CCCCC(=O)O[C@H]2C[C@H]4CC[C@@H](C2)[N+]4(C)Cc2ccc(OC(=O)CC)c(OC(=O)CC)c2)C3)cc1OC(=O)CC.[Br-].[Br-] (stereo partly drawn) [bis[N-(3,4-dipropionyloxybenzyl)tropanium-3α-yl]adipate dibromide] | 18% | 0% | 0% |  | 0.4 min | 0.6 min |  |  |  | 0.65 min | 0.9 min |  |  |  | 0.75 min | 0.65 min |  |  |  | ED50 ([1]; Rattus norvegicus, iv): 0.217 mg/kg; ED50 [2, 6]: 0.075 mg/kg; ΔBP (change in arterial blood pressure) [2, 7]: 0%; ΔH (change in heart rate) [2, 7]: 0%; ED50 ([3]; Sus scrofa, read-out: ED50): 0.3 mg/kg; VB (vagal block) [3, 7]: 65%; ΔBP (change in arterial blood pressure) [3, 7]: 0%; ΔH (change in heart rate) [3, 7]: 0% |
|  | COc1cc(C[N+]2(C)[C@@H]3CC[C@H]2C[C@@H](OC(=O)CCCCCCCCCC(=O)O[C@H]2C[C@H]4CC[C@@H](C2)[N+]4(C)Cc2cc(OC)c(OC(C)=O)c(OC)c2)C3)cc(OC)c1OC(C)=O.[Br-].[Br-] (stereo partly drawn) [bis[N-(4-acetoxy-3,5-dimethoxybenzyl)tropanium-3α-yl]1,9-nonanedicarboxylate dibromide] | 99% | 0% | 0% |  | 0.5 min | 0.4 min |  |  |  | 0.35 min | 0.35 min |  |  |  | 1.2 min | 0.5 min |  |  |  | ED50 ([1]; Rattus norvegicus, iv): 0.5 mg/kg; ED50 [2, 6]: 0.5 mg/kg; ΔBP (change in arterial blood pressure) [2, 7]: 0%; ΔH (change in heart rate) [2, 7]: 0%; ED50 ([3]; Sus scrofa, read-out: ED50): 0.6 mg/kg; VB (vagal block) [3, 7]: 90%; ΔBP (change in arterial blood pressure) [3, 7]: 0%; ΔH (change in heart rate) [3, 7]: 0% |
| 35% | CCC(=O)Oc1ccc(C[N+]2(C)C3CCCC2CC(OC(=O)CCCC(=O)OC2CC4CCCC(C2)[N+]4(C)Cc2ccc(OC(=O)CC)c(OC(=O)CC)c2)C3)cc1OC(=O)CC.[Br-].[Br-] (stereo not shown) [bis[N-(3,4-dipropionyloxybenzyl)granataninium-3-yl]glutarate dibromide] |  |  |  | 0.26 mg/kg | 0.4 min | 0.55 min | 0% | 0% | 0.135 mg/kg | 0.55 min | 0.7 min | 0% | 0% | 0.23 mg/kg | 0.65 min | 0.5 min | 0% | 0% | 0% |  |

| SMILES | VB (vagal block) ([3]; in vivo) | VB (vagal block) [1, 4] | ΔBP (change in arterial blood pressure) [1, 4] | ΔH (change in heart rate) [1, 4] | ED50 [1, 5] | RI (recovery index) ([1]; rat) | Onset ([1]; rat) | ΔBP (change in arterial blood pressure) ([2]; in vivo) | ΔH (change in heart rate) ([2]; in vivo) | ED50 [2] | RI (recovery index) [2] | Onset [2] | ΔBP (change in arterial blood pressure) ([3]; in vivo) | ΔH (change in heart rate) ([3]; in vivo) | ED50 [3] | RI (recovery index) [3] | Onset [3] | VB (vagal block) ([1]; rat, in vivo) | ΔBP (change in arterial blood pressure) ([1]; rat, in vivo) | ΔH (change in heart rate) ([1]; rat, in vivo) | also measured |
| --- | --- | --- | --- | --- | --- | --- | --- | --- | --- | --- | --- | --- | --- | --- | --- | --- | --- | --- | --- | --- | --- |
| COc1cc(C[N+]2(C)C3CCC2CC(OC(=O)C2C4C=CC(C4)C2C(=O)OC2CC4CCC(C2)[N+]4(C)Cc2cc(OC)c(OC(C)=O)c(OC)c2)C3)cc(OC)c1OC(C)=O.[Br-].[Br-] (stereo not drawn) [bis[N-(4-acetoxy-3,5-dimethoxybenzyl)tropanium-3α-yl]trans-3,6-endomethylene-1,2,3,6-tetrahydrophthalate dibromide] | 26% | 20% | 0% | 0% | 0.2 mg/kg | 0.8 min | 0.7 min | 0% | 0% | 0.145 mg/kg | 0.45 min | 0.45 min | 0% | 0% | 0.343 mg/kg | 2 min | 0.54 min |  |  |  |  |
| CC(=O)Oc1ccc(C[N+]2(C)C3CCC2CC(OC(=O)C2C4C=CC(C4)C2C(=O)OC2CC4CCC(C2)[N+]4(C)Cc2ccc(OC(C)=O)c(OC(C)=O)c2)C3)cc1OC(C)=O.[Br-].[Br-] (stereo not drawn) [bis[N-(3,4-diacetoxybenzyl)tropanium-3β-yl]trans-3,6-endomet] [bis[N-(3,4-diacetoxybenzyl)tropanium-3β-yl]trans-3,6-endomethylene-1,2,3,6-tetrahydrophthalate dibromide] | 100% | 45% | 0% | 0% | 0.258 mg/kg | 0.5 min | 0.68 min | 0% | 0% | 0.21 mg/kg | 0.75 min | 0.8 min | −5% | −10% | 0.16 mg/kg | 2 min | 1.1 min |  |  |  |  |
